Assay results taken from ChEMBL document CHEMBL5136987, “Redesigning of the cap conformation and symmetry of the diphenylethyne core to yield highly potent pan-genotypic NS5A inhibitors with high potency and high resistance barrier” (Eur J Med Chem, 2022).
Calls of active or inactive are those of the source. No cut-off for these calls is given here.

Key:
Hepatitis C virus [1] = test: Antiviral activity against HCV 3a S52 in human Huh7.5 cells carrying HCV subgenomic replicons assessed as inhibition of viral replication measured after 72 hrs by Firefly luciferase reporter gene assay; assay type: functional, organism-based, Hepacivirus hominis; details: subtype 3a S52, Huh7.5, 72 h
Hepatitis C virus [2] = test: Antiviral activity against HCV 4a ED43 in human Huh7.5 cells carrying HCV subgenomic replicon assessed as inhibition of viral replication measured after 72 hrs by Firefly luciferase reporter gene assay; assay type: functional, organism-based, Hepacivirus hominis; details: subtype 4a ED43, Huh7.5, 72 h
[3] = Metabolic stability in human S9 fraction assessed as half life at 10 mg/ml measured upto 120 mins in presence of NADP […] system by LC-MS/MS analysis; assay type: ADME, subcellular
[4] = Metabolic stability in human S9 fraction assessed as clearance at 10 mg/ml measured upto 120 mins in presence of NADP […] system by LC-MS/MS analysis; assay type: ADME, subcellular
[5] = Cytotoxicity against human Huh-5-2 cells carrying HCV subgenomic replicon assessed as decrease in intracellular ATP level measured after 72 hrs by Glo-max luminescence based assay; assay type: toxicity, cell-based
Hepatitis C virus [6] = test: Antiviral activity against HCV 2a JFH1 in human Huh-7 cells carrying HCV subgenomic replicon assessed as inhibition of viral replication measured after 72 hrs by Firefly luciferase reporter gene assay; assay type: functional, cell-based; details: 2a JFH1, Huh-7, 72 h
Hepatitis C virus [7] = test: Antiviral activity against HCV GT-1b Con1 in human Huh-5-2 cells carrying HCV subgenomic replicon assessed as reduction of viral replication measured after 72 hrs by Firefly luciferase reporter gene assay; assay type: functional, organism-based, Hepacivirus hominis; details: subtype 1b Con1, Huh-5-2, 72 h
[8] = Selectivity index, ratio of CC50 for cytotoxicity against human Huh-5-2 cells carrying HCV subgenomic replicon assessed as decrease in intracellular ATP level to EC50 for antiviral activity against HCV GT-1b Con1 in human Huh-5-2 cells carrying HCV subgenomic replicon assessed as reduction of viral replication; assay type: toxicity, cell-based; details: read-out: Ratio CC50/EC50
Hepatitis C virus [9] = test: Antiviral activity against full length HCV GT-1a H77S.3 in human Huh-7-Lunet cells carrying HCV subgenomic replicon assessed as inhibition of viral replication measured after 72 hrs by Firefly luciferase reporter gene assay; assay type: functional, organism-based, Hepacivirus hominis; details: genotype 1a H77S.3, Huh-7, 72 h
Hepatitis C virus [10] = test: Antiviral activity against HCV GT-1b Con1 infected in human Huh-5-2 cells carrying HCV subgenomic replicon assessed as reduction of viral replication by RT-qPCR analysis; assay type: functional, organism-based, Hepacivirus hominis; details: subtype 1b Con1, Huh-5-2
[11] = Selectivity index, ratio of EC50 for antiviral activity against HCV GT-1b Con1 in human Huh-5-2 cells carrying HCV subgenomic replicon assessed as drug resistance measured after 15weeks in presence of G418 by NGS analysis to EC50 for antiviral activity against HCV GT-1b Con1 in human Huh-5-2 cells carrying HCV subgenomic replicon assessed as drug resistance measured after 30 passages in presence of G418; assay type: functional, Hepatitis C virus subtype 1b
Hepatitis C virus [12] = test: Antiviral activity against HCV GT-1b Con1 in human Huh-5-2 cells carrying HCV subgenomic replicon assessed as drug resistance upto 100X EC50 and measured after 30 passages in presence of G418 by NGS analysis; assay type: functional, organism-based, Hepacivirus hominis; details: subtype 1b Con1, Huh-5-2
Hepatitis C virus [13] = test: Antiviral activity against HCV GT-1b Con1 in human Huh-5-2 cells carrying HCV subgenomic replicon assessed as drug resistance upto 100X EC50 and measured after 15 weeks in presence of G418 by NGS analysis; assay type: functional, organism-based, Hepacivirus hominis; details: subtype 1b Con1, Huh-5-2
Hepatitis C virus [14] = test: Antiviral activity against HCV GT-1b Con1 infected in human Huh-5-2 cells carrying HCV subgenomic replicon assessed as reduction in NS5A protein level incubated at 3.3 to 30 pM by PI staining based indirect immunofluorescence assay; assay type: functional, organism-based; details: Hepacivirus hominis, subtype 1b Con1, dose 3.3-30 pM

COC(=O)N[C@@H](C(=O)N1CCC[C@H]1C(=O)Nc1cccc(C#Cc2ccc(-c3cnc([C@@H]4CCCN4C(=O)[C@H](NC(=O)OC)c4ccccc4)[nH]3)cc2)c1)c1ccccc1
EC50 (Hepatitis C virus [1]): 0.229 nM | EC50 (Hepatitis C virus [2]): 0.0504 nM | half-life at 10 mg/ml [3]: > 120 min | microsomal CLint [4]: < 5.8 µL/min/mg | CC50 at 72 h [5]: 26200 nM | EC50 (Hepatitis C virus [6]): 0.134 nM | EC50 (Hepatitis C virus [7]): 0.00114 nM

COC(=O)N[C@@H](CCSC)C(=O)N1CCC[C@H]1C(=O)Nc1cccc(C#Cc2cccc(NC(=O)[C@@H]3CCCN3C(=O)[C@H](CCSC)NC(=O)OC)c2)c1
selectivity ratio [8]: > 7350 | CC50 at 72 h [5]: > 1000 nM | EC50 (Hepatitis C virus [7]): 0.136 nM

CCOC(=O)N[C@@H](CC(C)C)C(=O)N1CCC[C@H]1C(=O)Nc1cccc(C#Cc2cccc(NC(=O)[C@@H]3CCCN3C(=O)[C@H](CC(C)C)NC(=O)OCC)c2)c1
selectivity ratio [8]: 968 | CC50 at 72 h [5]: 24200 nM | EC50 (Hepatitis C virus [7]): 25 nM

COC(=O)N[C@@H](C(=O)N1CCC[C@H]1C(=O)Nc1ccc(C#Cc2ccc(NC(=O)[C@@H]3CCCN3C(=O)[C@H](NC(=O)OC)c3ccccc3)cc2)cc1)c1ccccc1
EC50 (Hepatitis C virus [1]): 0.316 nM | EC50 (Hepatitis C virus [2]): 0.194 nM | half-life at 10 mg/ml [3]: > 120 min | microsomal CLint [4]: < 5.8 µL/min/mg | CC50 at 72 h [5]: 28200 nM | EC50 (Hepatitis C virus [6]): 0.147 nM | EC50 (Hepatitis C virus [7]): 0.00259 nM

COC(=O)N[C@H](CC(C)C)C(=O)N1CCC[C@H]1C(=O)Nc1cccc(C#Cc2cccc(NC(=O)[C@@H]3CCCN3C(=O)[C@@H](CC(C)C)NC(=O)OC)c2)c1
selectivity ratio [8]: 560000 | CC50 at 72 h [5]: 97800 nM | EC50 (Hepatitis C virus [7]): 0.175 nM

COC(=O)N[C@@H](C(=O)N1CCC[C@H]1C(=O)Nc1cccc(C#Cc2cccc(NC(=O)[C@@H]3CCCN3C(=O)[C@H](NC(=O)OC)c3ccccc3)c2)c1)c1ccccc1
EC50 (Hepatitis C virus [1]): 0.0559 nM | EC50 (Hepatitis C virus [9]): 0.0259 nM | EC50 (Hepatitis C virus [10]): 0.00157 nM | Ratio EC50 [11]: 64.4 | EC50 (Hepatitis C virus [12]): 0.00266 nM | EC50 (Hepatitis C virus [2]): 0.0163 nM | half-life at 10 mg/ml [3]: 20 min | microsomal CLint [4]: 35.6 µL/min/mg | CC50 at 72 h [5]: 43200 nM | EC50 (Hepatitis C virus [6]): 0.123 nM | EC50 (Hepatitis C virus [13]): 0.171 nM | EC50 (Hepatitis C virus [7]): 0.00123 nM | Activity (Hepatitis C virus [14]): Active

COC(=O)N[C@H](C(=O)N1CCC[C@H]1C(=O)Nc1ccc(C#Cc2cccc(NC(=O)[C@@H]3CCCN3C(=O)[C@@H](NC(=O)OC)C(C)C)c2)cc1)C(C)C
selectivity ratio [8]: 231000 | CC50 at 72 h [5]: 41200 nM | EC50 (Hepatitis C virus [7]): 0.179 nM

CC(C)[C@H](NC(=O)OCc1ccccc1)C(=O)N1CCC[C@H]1C(=O)Nc1cccc(C#Cc2cccc(NC(=O)[C@@H]3CCCN3C(=O)[C@@H](NC(=O)OCc3ccccc3)C(C)C)c2)c1
CC50 at 72 h [5]: > 1000 nM | EC50 (Hepatitis C virus [7]): 999 nM

CCCCOC(=O)N[C@H](C(=O)N1CCC[C@H]1C(=O)Nc1cccc(C#Cc2cccc(NC(=O)[C@@H]3CCCN3C(=O)[C@@H](NC(=O)OCCCC)C(C)C)c2)c1)C(C)C
selectivity ratio [8]: > 173 | CC50 at 72 h [5]: > 100000 nM | EC50 (Hepatitis C virus [7]): 577 nM

COC(=O)N[C@H](C(=O)N1CCC[C@H]1C(=O)Nc1ccc(C#Cc2ccc(NC(=O)[C@@H]3CCCN3C(=O)[C@@H](NC(=O)OC)C(C)C)cc2)cc1)C(C)C
EC50 (Hepatitis C virus [1]): 405 nM | EC50 (Hepatitis C virus [2]): 446 nM | selectivity ratio [8]: > 7660 | CC50 at 72 h [5]: > 1000 nM | EC50 (Hepatitis C virus [6]): 60.1 nM | EC50 (Hepatitis C virus [7]): 0.131 nM

COC(=O)N[C@H](C(=O)N1CCC[C@H]1C(=O)Nc1cccc(C#Cc2cccc(NC(=O)[C@@H]3CCCN3C(=O)[C@H](NC(=O)OC)c3ccccc3)c2)c1)C(C)C
half-life at 10 mg/ml [3]: 18.8 min | microsomal CLint [4]: 36.4 µL/min/mg | CC50 at 72 h [5]: 33600 nM | EC50 (Hepatitis C virus [7]): 0.0033 nM

COC(=O)N[C@@H](C(=O)N1CCCC1C(=O)Nc1cccc(C#Cc2cccc(-c3cnc([C@@H]4CCCN4C(=O)[C@H](NC(=O)OC)c4ccccc4)[nH]3)c2)c1)c1ccccc1 (single isomer, unassigned)
half-life at 10 mg/ml [3]: 73.6 min | microsomal CLint [4]: 9.4 µL/min/mg | selectivity ratio [8]: > 11000 | CC50 at 72 h [5]: > 1000 nM | EC50 (Hepatitis C virus [7]): 0.0906 nM

COC(=O)N[C@@H](C(=O)N1CCC[C@H]1C(=O)Nc1cccc(C#Cc2cccc(NC(=O)[C@@H]3CCCN3C(=O)[C@H](NC(=O)OC)C(C)C)c2)c1)C(C)C
selectivity ratio [8]: > 891 | CC50 at 72 h [5]: > 1000 nM | EC50 (Hepatitis C virus [7]): 1.12 nM

COC(=O)N[C@H](C(=O)N1CCC[C@H]1C(=O)Nc1cccc(C#Cc2cccc(NC(=O)[C@@H]3CCCN3C(=O)[C@@H](NC(=O)OC)c3ccccc3)c2)c1)c1ccccc1
half-life at 10 mg/ml [3]: 75.9 min | microsomal CLint [4]: 9.9 µL/min/mg | selectivity ratio [8]: 5.56e+06 | CC50 at 72 h [5]: 24200 nM | EC50 (Hepatitis C virus [7]): 0.0044 nM

COC(=O)N[C@H](CCSC)C(=O)N1CCC[C@H]1C(=O)Nc1cccc(C#Cc2cccc(NC(=O)[C@@H]3CCCN3C(=O)[C@@H](CCSC)NC(=O)OC)c2)c1
selectivity ratio [8]: > 1890 | CC50 at 72 h [5]: > 1000 nM | EC50 (Hepatitis C virus [7]): 0.528 nM

COC(=O)N[C@H](C(=O)N1CCC[C@H]1c1ncc(-c2ccc(-c3ccc(-c4cnc([C@@H]5CCCN5C(=O)[C@@H](NC(=O)OC)C(C)C)[nH]4)cc3)cc2)[nH]1)C(C)C [DACLATASVIR]
EC50 (Hepatitis C virus [1]): 8.35 nM | EC50 (Hepatitis C virus [9]): 0.136 nM | Ratio EC50 [11]: 132 | EC50 (Hepatitis C virus [12]): 0.0257 nM | EC50 (Hepatitis C virus [2]): 0.0212 nM | EC50 (Hepatitis C virus [6]): 0.0578 nM | EC50 (Hepatitis C virus [13]): 3.39 nM

COC(=O)N[C@@H](CC(C)C)C(=O)N1CCC[C@H]1C(=O)Nc1cccc(C#Cc2cccc(NC(=O)[C@@H]3CCCN3C(=O)[C@H](CC(C)C)NC(=O)OC)c2)c1
selectivity ratio [8]: 407000 | CC50 at 72 h [5]: 54400 nM | EC50 (Hepatitis C virus [7]): 0.133 nM

CCOC(=O)N[C@H](C(=O)N1CCC[C@H]1C(=O)Nc1cccc(C#Cc2cccc(NC(=O)[C@@H]3CCCN3C(=O)[C@@H](NC(=O)OCC)C(C)C)c2)c1)C(C)C
selectivity ratio [8]: > 8230 | CC50 at 72 h [5]: > 100000 nM | EC50 (Hepatitis C virus [7]): 12.2 nM

C[C@]12CC[C@H]3[C@@H](CCC4=CC(=O)CC[C@@]43C)[C@@H]1CC[C@@H]2O [TESTOSTERONE]
half-life at 10 mg/ml [3]: 7.4 min

COC(=O)N[C@H](C(=O)N1CCC[C@H]1C(=O)Nc1cccc(C#Cc2cccc(NC(=O)[C@@H]3CCCN3C(=O)[C@@H](NC(=O)OC)C(C)C)c2)c1)C(C)C
EC50 (Hepatitis C virus [1]): 2150 nM | EC50 (Hepatitis C virus [2]): 279 nM | selectivity ratio [8]: > 3.25e+06 | CC50 at 72 h [5]: > 100000 nM | EC50 (Hepatitis C virus [6]): 233 nM | EC50 (Hepatitis C virus [7]): 0.0308 nM

COC(=O)N[C@@H](C(=O)N1CCC[C@H]1C(=O)Nc1ccc(C#Cc2cccc(NC(=O)[C@@H]3CCCN3C(=O)[C@H](NC(=O)OC)c3ccccc3)c2)cc1)c1ccccc1
selectivity ratio [8]: > 995 | CC50 at 72 h [5]: > 1000 nM | EC50 (Hepatitis C virus [7]): 1 nM

CCSC[C@@H](NC(=O)OC)C(=O)N1CCC[C@H]1C(=O)Nc1cccc(C#Cc2cccc(NC(=O)[C@@H]3CCCN3C(=O)[C@@H](CSCC)NC(=O)OC)c2)c1
selectivity ratio [8]: 13000 | CC50 at 72 h [5]: 11200 nM | EC50 (Hepatitis C virus [7]): 0.86 nM

CCCCOC(=O)N[C@@H](CC(C)C)C(=O)N1CCC[C@H]1C(=O)Nc1cccc(C#Cc2cccc(NC(=O)[C@@H]3CCCN3C(=O)[C@H](CC(C)C)NC(=O)OCCCC)c2)c1
CC50 at 72 h [5]: > 1000 nM | EC50 (Hepatitis C virus [7]): > 1000 nM
